This is an account of results in patent US20260166159A1, “KRAS G12D DEGRADATION AGENT, AND PREPARATION METHOD AND USE THEREFOR” (LEADINGTAC PHARMACEUTICAL (SHAOXING) CO., LTD., priority 2022, published 2026).

In general, pIC50 refers to the negative decadic logarithm of the IC50, by convention in mol/L. One may read the DC50 as the concentration at which degradation of the target reaches its halfway point. As a reminder, the Dmax is the largest share of the target that was removed. Read a high Dmax as deep degradation.

Holding throughout (type): cell-based
For experiment [1], the system named is KRAS G12D mutant human gastric cancer cell AGS. Nature of the experiment: 3D cell proliferation inhibition assay, AGS. The following applies: 168 h, 7 days, CTG. The text has this: (§1) The inhibitory effects of the compounds on 3D cell proliferation were investigated on KRAS G12D mutant human lung cancer cell A427, KRAS G12D mutant human gastric cancer cell AGS, KRAS G12D mutant human metastatic pancreatic cancer cell AsPc-1, KRAS G12D mutant human pancreatic cancer cell Panc 04.03, KRAS G12D mutant human pancreatic cancer cell HPAC, KRAS G12V mutant human lung squamous cell carcinoma cell SW900, and KRAS WT human gastric cancer cell MKN1. The specific procedures were as follows:
(§2) 10 μL of each compound solution diluted in a gradient was added to corresponding wells of a 96-well low-adsorption microplate (PerkinElmer), so that the final concentrations of the test compounds in the reaction system were in a range of 10000-0.026 nM. The final concentration of DMSO was 0.2%. Then 90 µL of cells were correspondingly seeded into each well to achieve a cell density of 5×10^2 cells/well (the cell density of SW900 was 5×10^1 cells/well, and the cell density of MKN1 was 1×10^3 cells/well). In addition to test wells for the test compounds, both a DMSO control well and a medium control well were set, with the DMSO control well containing DMSO and cells and the medium well containing only a medium. After the sample loading, the 96-well low-adsorption microplate was incubated in an incubator at 37° C. with 5% carbon dioxide for 7 days. After 7 days, the microplate was taken out, and 100 μL of CTG reagent (Promega) was added to each well. The plate was incubated at room temperature for 60 min and read on a microplate reader EnVision by the chemiluminescence program. The inhibition rates of the compounds at each concentration were calculated using the formula for the percentage inhibition of cell proliferation: inhibition rate %=(mean value of DMSO control group−single concentration reading value of compound)/(mean value of DMSO control group−mean value of medium control group)×100. Then non-linear curve fittings for logarithmic concentration-inhibition rate were performed by GraphPad Prism 8, and the IC50 values of the compounds were obtained (Table 5).

Experiment [2] relates to KRAS G12D mutant human lung cancer cell A427. Kind of experiment: 3D cell proliferation inhibition assay, A427. The following applies: A-427, 168 h, A427, 7 days, CTG.
From the text: as §1, §2

Experiment [3] concerns the target T1, KRAS-G12D (Homo sapiens, UniProt P01116, G12D).
T1 construct: endogenous in cells; host or cells: A-427 (ATCC), AGS, AsPc-1, Panc 04.03
Kind of experiment: KRAS-G12D degradation assay (Western Blot), A-427 cells. To be noted: A427 cells, 24 h; for Dmax: A-427. The protocol: (§3) The degradation effects of the compounds on KRAS-G12D were investigated on KRAS G12D mutant human lung cancer cell A-427 (ATCC), KRAS G12D mutant human gastric cancer cell AGS, KRAS G12D mutant human metastatic pancreatic cancer cell AsPc-1, and KRAS G12D mutant human pancreatic adenocarcinoma cell Panc 04.03. The specific procedures were as follows: 0.95 mL of cells were seeded into each well of a 24-well cell culture plate to achieve a cell density of 5×10^5 cells/well; and the cell plate was incubated in an incubator at 37° C. with 5% CO2 overnight. Then 50 μL of the compound solution after dilution was added to each of the wells with the corresponding cells, so that the final concentration of the compound was in a range of 0.03-3000 nM. The final concentration of DMSO was 0.25%. After the compounds were added, the cell plate was incubated in the incubator at 37° C. with 5% CO2 for 24 h. The culture medium in the 24-well cell culture plate was removed, and the plate was washed twice with 1×PBS (KeyGEN). 120 μL of RIPA (strong) lysis buffer (Beyotime) supplemented with 1 mM phenylmethylsulfonyl fluoride, a protease inhibitor mixture (Beyotime), and a protease phosphatase inhibitor mixture (Beyotime) was added to lyse adherent A-427 cells at the bottom of the cell culture plate. After the plate was left to stand on ice for 30 min, the protein lysate in each well was transferred to a 1.5 mL centrifuge tube and centrifuged at 15000 g for 20 min at 4° C. The cell lysate supernatants after centrifugation were cryopreserved in a refrigerator at −80° C. for later use.
(§4) After the samples of the cell lysate supernatants that had been prepared were thawed from the refrigerator at −80° C., the total protein concentrations of the cell lysates were determined using a BCA protein quantification kit (Tiangen). The total protein concentrations of the samples were then adjusted to 0.5 μg/μL with PBS and 5×SDS-PAGE protein loading buffer (Beyotime), and the samples were incubated in a water bath at 100° C. for 15 min. The samples were then incubated in an ice bath for 5 min and centrifuged at 14000 g for 1 min at 4° C., and the supernatants were mixed well as loading samples for the Western Blot assay. The samples were loaded into wells of a 10% precast gel (KeyGEN) with a loading volume of 10 μL (total protein: 5 μg), a sufficient Tris-MOPS-SDS running buffer (Adamas) was added, and then electrophoresis was performed at a constant voltage of 120 V for 55 min. After the electrophoresis, the proteins on the gel were transferred to PVDF membranes at a constant current of 250 mA for 55 min. After the membrane transfer, the PVDF membranes were incubated in 1× Quick Block blocking buffer (Beyotime) at room temperature for 30 min. After the blocking, the PVDF membranes were separately incubated at 4° C. overnight with the KRAS antibody (Abcam) diluted in a ratio of 1:1000 and the […] antibody (Abcam) diluted in a ratio of 1:2000 in 5% BSA as the diluent, and then washed with 1×TBST buffer (2.4 g of Tris, 8.8 g of NaCl, 1.5 mL of Tween 20, with pH adjusted to 7.4, with the volume brought to 1 L) 3 times for 10 min/time. The membranes were incubated with a secondary antibody (Abcam) diluted in 5% BSA at room temperature for 2 h, and then washed with 1×TBST buffer 3 times for 10 min/time. Finally, the membranes were incubated with Clarity Western ECL Substrate (BIO-RAD) for 5 min for luminescence and color development, and a ChemiScope 6200 Touch chemiluminescence imaging system (Clinx) was used for color development and protein mapping. Gray value analysis of the protein maps was performed using the chemiluminescence analysis software (Clinx). The gray correction value for each sample was calculated using the formula: gray correction value=(gray value of target protein/gray value of corresponding internal reference)×10^3. Then degradation rates were calculated by comparison with the gray correction value of the control group. […]
For orientation: In western blotting, separated proteins are transferred to a membrane and probed.

In experiment [4] the target is T1, KRAS-G12D. Kind of experiment: KRAS-G12D degradation assay (Western Blot), AsPc-1 cells. The following applies: for DC50: 24 h; for Dmax: ASPC1, 24 h. On the procedure: as §3, §4

pIC50: −log10 of the molar value. Bounds are passed on as bounds.

T1 sequence (P01116 1-188 isoform P01116-2 G12D): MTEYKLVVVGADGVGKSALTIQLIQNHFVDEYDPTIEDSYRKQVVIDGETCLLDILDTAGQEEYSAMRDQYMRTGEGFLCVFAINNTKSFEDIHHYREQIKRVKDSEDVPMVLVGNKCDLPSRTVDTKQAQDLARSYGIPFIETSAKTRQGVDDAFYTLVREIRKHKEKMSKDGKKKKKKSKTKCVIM

In experiment [1] (class symbols), `CCc1c(F)ccc2cc(O)cc(-c3ncc4c(N5CC6CCC(C5)N6)nc(OCC5(CN6CCN(CC7CCC8(CC7)CCN(C(=O)c7ccc(C)c(N9CCC(=O)NC9=O)c7)CC8)CC6)CC5)nc4c3F)c12` [Example 37, 1-(5-(9-((4-((1-(((4-(3,8-diazabicyclo[3.2.1]octan-3-yl)-7-(8-ethyl-7-fluoro-3-hydroxynaphthalen-1-yl)-8-fluoropyrido[4,3-d]pyrimidin-2-yl)oxy)methyl)cyclopropyl)methyl)piperazin-1-yl)methyl)-3-azaspiro[5.5]undecane-3-carbonyl)-2-methylphenyl)dihydropyrimidine-2,4(1H,3H)-dione] gave a pIC50 of at least 7.30. For the same compound, the pIC50 in experiment [2] (class symbols) was 6.30 to 7.00. On KRAS-G12D [3] (class symbols), the DC50 is at most 50 nM and the Dmax lay in the range of 80 to 100%.

Regarding `C#Cc1c(F)ccc2cc(O)cc(-c3ncc4c(N5CC6CCC(C5)N6)nc(SCC5(CN6CCN(CC7CCC8(CC7)CCN(C(=O)c7ccc(OC)c(N9CCC(=O)NC9=O)c7)CC8)CC6)CC5)nc4c3F)c12` [Example 54, 1-(5-(9-((4-((1-(((4-(3,8-diazabicyclo[3.2.1]octan-3-yl)-7-(8-ethynyl-7-fluoro-3-hydroxynaphthalen-1-yl)-8-fluoropyrido[4,3-d]pyrimidin-2-yl)thio)methyl)cyclopropyl)methyl)piperazin-1-yl)methyl)-3-azaspiro[5.5]undecane-3-carbonyl)-2-methoxyphenyl)dihydropyrimidine-2,4(1H,3H)-dione], the pIC50 in experiment [1] (class symbols) and in experiment [2] (class symbols) was at least 7.30 throughout.

As for `C#Cc1c(F)ccc2cc(O)cc(-c3ncc4c(N5CC6CCC(C5)N6)nc(OCCN5CCN(CC6CCC7(CC6)CCN(C(=O)c6ccc(Cl)c(N8CCC(=O)NC8=O)c6)CC7)CC5)nc4c3F)c12` [Example 60, 1-(5-(9-((4-(2-((4-(3,8-diazabicyclo[3.2.1]octan-3-yl)-7-(8-ethynyl-7-fluoro-3-hydroxynaphthalen-1-yl)-8-fluoropyrido[4,3-d]pyrimidin-2-yl)oxy)ethyl)piperazin-1-yl)methyl)-3-azaspiro[5.5]undecane-3-carbonyl)-2-chlorophenyl)dihydropyrimidine-2,4(1H,3H)-dione], the pIC50 was at least 7.30 in experiment [1] (class symbols) and 6.30 to 7.00 in experiment [2] (class symbols).

Take `C#Cc1c(F)ccc2cc(O)cc(-c3ncc4c(N5CC6CCC(C5)N6)nc(OCC5(CN6CCC(CCOCC7(OC)CCN(C(=O)c8ccc(Cl)c(N9CCC(=O)NC9=O)c8)CC7)CC6)CC5)nc4c3F)c12` [Example 67, 1-(5-(4-((2-(1-((1-(((4-(3,8-diazabicyclo[3.2.1]octan-3-yl)-7-(8-ethynyl-7-fluoro-3-hydroxynaphthalen-1-yl)-8-fluoropyrido[4,3-d]pyrimidin-2-yl)oxy)methyl)cyclopropyl)methyl)piperidin-4-yl)ethoxy)methyl)-4-methoxypiperidine-1-carbonyl)-2-chlorophenyl)dihydropyrimidine-2,4(1H,3H)-dione]: the pIC50 in experiment [1] (numeric values) is 7.47; in experiment [2] (numeric values) it was 7.44.

Take `CCc1cccc2cc(O)cc(-c3ccc4c(N5CC6CCC(C5)N6)nc(OCC5(CN6CCN(CC7CCC8(CC7)CCN(C(=O)c7ccc(C)c(N9CCC(=O)NC9=O)c7)CC8)CC6)CC5)nc4c3F)c12` [Example 70, 1-(5-(9-((4-((1-(((4-(3,8-diazabicyclo[3.2.1]octan-3-yl)-7-(8-ethyl-3-hydroxynaphthalen-1-yl)-8-fluoroquinazolin-2-yl)oxy)methyl)cyclopropyl)methyl)piperazin-1-yl)methyl)-3-azaspiro[5.5]undecane-3-carbonyl)-2-methylphenyl)dihydropyrimidine-2,4(1H,3H)-dione]: in experiment [1] (numeric values), the negative-log IC50 (pIC50) is 7.81. Further, on KRAS-G12D [3] (numeric values), the DC50 was 14.6 nM and the Dmax was determined as 87.3%.

Take `C#Cc1c(F)ccc2cc(O)cc(-c3ccc4c(N5CC6CCC(C5)N6)nc(OCC5(CN6CCN(CC7CCC8(CC7)CCN(C(=O)c7ccc(Cl)c(N9CCC(=O)NC9=O)c7)CC8)CC6)CC5)nc4c3F)c12` [Example 72, 1-(5-(9-((4-((1-(((4-(3,8-diazabicyclo[3.2.1]octan-3-yl)-7-(8-ethynyl-7-fluoro-3-hydroxynaphthalen-1-yl)-8-fluoroquinazolin-2-yl)oxy)methyl)cyclopropyl)methyl)piperazin-1-yl)methyl)-3-azaspiro[5.5]undecane-3-carbonyl)-2-chlorophenyl)dihydropyrimidine-2,4(1H,3H)-dione]: the pIC50 in experiment [1] (numeric values) is 8.06. For the same compound, at KRAS-G12D [3] (numeric values), it took 101 nM to reach half-maximal degradation (DC50) and the maximal degradation (Dmax) is 82.6%.

For `C#Cc1c(F)ccc2cc(O)cc(-c3ncc4c(N5CC6CCC(C5)N6)nc(OC[C@@H](CN5CCN(CC6CCC7(CC6)CCN(C(=O)c6ccc(C)c(N8CCC(=O)NC8=O)c6)CC7)CC5)OC)nc4c3F)c12` [Example 172, 1-(5-(9-((4-((R)-3-((4-(3,8-diazabicyclo[3.2.1]octan-3-yl)-7-(8-ethynyl-7-fluoro-3-hydroxynaphthalen-1-yl)-8-fluoropyrido[4,3-d]pyrimidin-2-yl)oxy)-2-methoxypropyl)piperazin-1-yl)methyl)-3-azaspiro[5.5]undecane-3-carbonyl)-2-methylphenyl)dihydropyrimidine-2,4(1H,3H)-dione], on KRAS-G12D [4], half-maximal degradation (DC50) was put at 113 nM and the Dmax came out at 55%.

On KRAS-G12D [4], `C#Cc1c(F)ccc2cc(O)cc(-c3ncc4c(N5CC6CCC(C5)N6)nc(OC[C@H](O)CN5CCN(CC6CCC7(CC6)CCN(C(=O)c6ccc(OC)c(N8CCC(=O)NC8=O)c6)CC7)CC5)nc4c3F)c12` [Example 191, 1-(5-(9-((4-((R)-3-((4-(3,8-diazabicyclo[3.2.1]octan-3-yl)-7-(8-ethynyl-7-fluoro-3-hydroxynaphthalen-1-yl)-8-fluoropyrido[4,3-d]pyrimidin-2-yl)oxy)-2-hydroxypropyl)piperazin-1-yl)methyl)-3-azaspiro[5.5]undecane-3-carbonyl)-2-methoxyphenyl)dihydropyrimidine-2,4(1H,3H)-dione] came in with a DC50 of 149 nM and a Dmax of 81.9%.
